Laboratory results as given in ChEMBL document CHEMBL5625164, “Design, synthesis, and evaluation of new anti-inflammatory natural products amide derivatives endowed with anti-blood cancer activity towards development of potential multifunctional agents against hematological cancers” (Eur J Med Chem, 2023).
Calls of active or inactive are those of the source. The calls are words filed in the database; no cut-off is given here.

Columns and labels:
[1] = Cytotoxicity against mouse RAW264.7 cells assessed as macrophage viability at 10 uM relative to control; assay type: toxicity, cell-based; settings: read-out: Activity
BV-2 [2] = experiment: Anti-inflammatory activity against mouse BV-2 cells assessed as inhibition of LPS-induced NO production at 10 uM pretreated for 2 hrs followed stimulated with LPS for 22 hrs by Griess reaction assay relative to control; assay type: functional; settings: time 24 hrs
BV-2 [3] = experiment: Anti-inflammatory activity against mouse BV-2 cells assessed as inhibition of LPS-induced TNFalpha production pretreated for 2 hrs followed stimulated with LPS for 22 hrs; assay type: functional, cell-based
BV-2 [4] = experiment: Anti-inflammatory activity against mouse BV-2 cells assessed as inhibition of LPS-induced PGE2 production pretreated for 2 hrs followed stimulated with LPS for 22 hrs at 10 uM relative to control; assay type: functional; settings: time 24 hrs
RPMI-8226 [5] = experiment: Anticancer activity against human RPMI-8226 cells assessed as growth inhibition at 10 uM measured after 48 hrs by SRB assay relative to control; assay type: functional; settings: read-out: GI
MOLT-4 [6] = experiment: Anticancer activity against human MOLT-4 cells assessed as growth inhibition at 10 uM measured after 48 hrs by SRB assay relative to control; assay type: functional; settings: read-out: GI
BV-2 [7] = experiment: Anti-inflammatory activity against mouse BV-2 cells assessed as inhibition of LPS-induced TNFalpha production pretreated for 2 hrs followed stimulated with LPS for 22 hrs at 10 uM relative to control; assay type: functional; settings: time 24 hrs
SR [8] = experiment: Anticancer activity against human SR cells assessed as growth inhibition at 10 uM measured after 48 hrs by SRB assay relative to control; assay type: functional; settings: read-out: GI
K562 [9] = experiment: Anticancer activity against human K562 cells assessed as growth inhibition at 10 uM measured after 48 hrs by SRB assay relative to control; assay type: functional; settings: read-out: GI
BV-2 [10] = experiment: Anti-inflammatory activity against mouse BV-2 cells assessed as inhibition of LPS-induced NO production pretreated for 2 hrs followed stimulated with LPS for 22 hrs by Griess reaction assay; assay type: functional, cell-based
CCRF-CEM [11] = experiment: Anticancer activity against human CCRF-CEM cells assessed as growth inhibition at 10 uM measured after 48 hrs by SRB assay relative to control; assay type: functional; settings: read-out: GI
RPMI-8226 [12] = experiment: Anticancer activity against human RPMI-8226 cells assessed as growth inhibition measured after 48 hrs by SRB assay relative to control; assay type: functional
HL-60 [13] = experiment: Anticancer activity against human HL-60 cells assessed as growth inhibition at 10 uM measured after 48 hrs by SRB assay relative to control; assay type: functional; settings: for inhibition of growth at 10 µM: read-out: GI
K562 [14] = experiment: Anticancer activity against human K562 cells assessed as growth inhibition measured after 48 hrs by SRB assay relative to control; assay type: functional
CCRF-CEM [15] = experiment: Anticancer activity against human CCRF-CEM cells assessed as growth inhibition measured after 48 hrs by SRB assay relative to control; assay type: functional
MOLT-4 [16] = experiment: Anticancer activity against human MOLT-4 cells assessed as growth inhibition measured after 48 hrs by SRB assay relative to control; assay type: functional
SR [17] = experiment: Anticancer activity against human SR cells assessed as growth inhibition measured after 48 hrs by SRB assay relative to control; assay type: functional
HL-60 [18] = experiment: Anticancer activity against human HL-60 cells assessed as growth inhibition measured after 48 hrs by SRB assay relative to control; assay type: functional
[19] = Cytotoxicity against mouse RAW264.7 cells assessed as macrophage viability at 40 uM relative to control; assay type: toxicity, cell-based; settings: read-out: Activity
BV-2 [20] = experiment: Anti-inflammatory activity against mouse BV-2 cells assessed as inhibition of LPS-induced NO production at 40 uM pretreated for 2 hrs followed stimulated with LPS for 22 hrs by Griess reaction assay relative to control; assay type: functional; settings: time 24 hrs
BV-2 [21] = experiment: Anti-inflammatory activity against mouse BV-2 cells assessed as inhibition of LPS-induced PGE2 production pretreated for 2 hrs followed stimulated with LPS for 22 hrs; assay type: functional, cell-based

COc1ccc(NC(=O)c2cccc(C3CC(=O)c4c(cc(OC)c(OC)c4OC)O3)c2)cc1 (racemic)
viability at 10 µM [1]: 111%
inhibition at 10 µM (BV-2 [2]): 28.6%

COc1ccccc1NC(=O)c1cccc(C2CC(=O)c3c(cc(OC)c(OC)c3OC)O2)c1 (racemic)
viability at 10 µM [1]: 103%
inhibition at 10 µM (BV-2 [2]): 19.7%

COc1ccc(C(=O)Nc2cccc(C3CC(=O)c4c(cc(OC)c(OC)c4OC)O3)c2)cc1 (racemic)
viability at 10 µM [1]: 102%
inhibition at 10 µM (BV-2 [2]): 15.2%

COc1cc2c(c(OC)c1OC)C(=O)CC(c1cccc(NC(=O)c3ccccc3)c1)O2 (racemic)
viability at 10 µM [1]: 97%
inhibition at 10 µM (BV-2 [2]): 23.5%

COc1cc2c(c(OC)c1OC)C(=O)CC(c1cccc(C(=O)Nc3cccc(Cl)c3)c1)O2 (racemic)
viability at 10 µM [1]: 93.9%
inhibition at 10 µM (BV-2 [2]): 24.6%

COc1cccc(NC(=O)c2cccc(C3CC(=O)c4c(cc(OC)c(OC)c4OC)O3)c2)c1 (racemic)
viability at 10 µM [1]: 112%
inhibition at 10 µM (BV-2 [2]): 21.9%

COc1cc2c(c(OC)c1OC)C(=O)CC(c1cccc(C(=O)Nc3cccnc3)c1)O2 (racemic)
viability at 10 µM [1]: 109%
inhibition at 10 µM (BV-2 [2]): 10.5%

COc1cc2c(c(OC)c1OC)C(=O)CC(c1cccc(C(=O)Nc3ccccc3)c1)O2 (racemic)
viability at 10 µM [1]: 110%
inhibition at 10 µM (BV-2 [2]): 24.2%

COc1cc2c(c(OC)c1OC)C(=O)CC(c1cccc(NC(=O)c3cccc(Br)c3)c1)O2 (racemic)
viability at 10 µM [1]: 105%
inhibition at 10 µM (BV-2 [2]): 14.2%

COc1cccc(CNC(=O)c2cccc(C3CC(=O)c4c(cc(OC)c(OC)c4OC)O3)c2)c1 (racemic)
viability at 10 µM [1]: 107%
inhibition at 10 µM (BV-2 [2]): 24.7%

COc1cc2c(c(OC)c1OC)C(=O)CC(c1cccc(NC(=O)c3ccccc3Br)c1)O2 (racemic)
IC50 (BV-2 [3]): 7.3 µM
inhibition at 10 µM (BV-2 [4]): 39%
viability at 10 µM [1]: 101%
inhibition of growth at 10 µM (RPMI-8226 [5]): 41.8%
inhibition of growth at 10 µM (MOLT-4 [6]): 30.4%
inhibition at 10 µM (BV-2 [7]): 62.4%
inhibition at 10 µM (BV-2 [2]): 41.4%
inhibition of growth at 10 µM (SR [8]): 31.6%
inhibition of growth at 10 µM (K562 [9]): 29.8%
IC50 (BV-2 [10]): 13.3 µM
inhibition of growth at 10 µM (CCRF-CEM [11]): 26.9%

Cc1ccc(NC(=O)c2ccc(CN3CCN(C)CC3)cc2)cc1Nc1nccc(-c2cccnc2)n1 [IMATINIB]
GI50 (RPMI-8226 [12]): 6.17 µM
growth inhibition (GI) (HL-60 [13]): inactive
GI50 (K562 [14]): 0.05 µM
inhibition of growth at 10 µM (RPMI-8226 [5]): 12.6%
inhibition of growth at 10 µM (MOLT-4 [6]): 18%
GI50 (CCRF-CEM [15]): 17 µM
GI50 (MOLT-4 [16]): 5.13 µM
GI50 (SR [17]): 7.24 µM
inhibition of growth at 10 µM (SR [8]): 14.6%
GI50 (HL-60 [18]): 13.5 µM
inhibition of growth at 10 µM (CCRF-CEM [11]): 6.6%

COc1cc2c(c(OC)c1OC)C(=O)CC(c1cccc(NC(=O)c3ccc(C#N)cc3)c1)O2 (racemic)
viability at 10 µM [1]: 115%
inhibition at 10 µM (BV-2 [2]): 26.8%

CC(=N)NCCCC[C@H](N)C(=O)O [L-NIL]
viability at 40 µM [19]: 106%
inhibition at 40 µM (BV-2 [20]): 54.3%

COc1cccc(C(=O)Nc2cccc(C3CC(=O)c4c(cc(OC)c(OC)c4OC)O3)c2)c1 (racemic)
viability at 10 µM [1]: 98%
inhibition at 10 µM (BV-2 [2]): 32.1%

COc1cc2c(c(OC)c1OC)C(=O)CC(c1cccc(C(=O)Nc3cccc([N+](=O)[O-])c3)c1)O2 (racemic)
IC50 (BV-2 [3]): > 20 µM
inhibition at 10 µM (BV-2 [4]): 31.4%
inhibition of growth at 10 µM (HL-60 [13]): 49.4%
viability at 10 µM [1]: 111%
inhibition of growth at 10 µM (RPMI-8226 [5]): 82.7%
inhibition of growth at 10 µM (MOLT-4 [6]): 77.2%
inhibition at 10 µM (BV-2 [2]): 42.7%
IC50 (BV-2 [21]): 10.7 µM
inhibition of growth at 10 µM (SR [8]): 66.2%
inhibition of growth at 10 µM (K562 [9]): 63.5%
IC50 (BV-2 [10]): 14.7 µM
inhibition of growth at 10 µM (CCRF-CEM [11]): 89.7%

COc1cc2c(c(OC)c1OC)C(=O)CC(c1cccc(C(=O)Nc3ccc(Br)cc3)c1)O2 (racemic)
IC50 (BV-2 [3]): 16.8 µM
inhibition at 10 µM (BV-2 [4]): 62.6%
inhibition of growth at 10 µM (HL-60 [13]): 86.3%
viability at 10 µM [1]: 113%
inhibition of growth at 10 µM (RPMI-8226 [5]): 85.4%
inhibition of growth at 10 µM (MOLT-4 [6]): 101%
inhibition at 10 µM (BV-2 [7]): 24.9%
inhibition at 10 µM (BV-2 [2]): 41.2%
IC50 (BV-2 [21]): 10.3 µM
inhibition of growth at 10 µM (SR [8]): 77.8%
inhibition of growth at 10 µM (K562 [9]): 93.8%
IC50 (BV-2 [10]): 13.1 µM
inhibition of growth at 10 µM (CCRF-CEM [11]): 90.7%

COc1ccccc1C(=O)Nc1cccc(C2CC(=O)c3c(cc(OC)c(OC)c3OC)O2)c1 (racemic)
viability at 10 µM [1]: 103%
inhibition at 10 µM (BV-2 [2]): 14.3%

COc1cc2c(c(OC)c1OC)C(=O)CC(c1cccc(NC(=O)c3ccc([N+](=O)[O-])cc3)c1)O2 (racemic)
Activity (BV-2 [3]; time 24.0 hrs): Dose-Dependent Effect
inhibition at 10 µM (BV-2 [4]): 51.6%
viability at 10 µM [1]: 104%
inhibition of growth at 10 µM (RPMI-8226 [5]): 66.6%
inhibition of growth at 10 µM (MOLT-4 [6]): 84.2%
inhibition at 10 µM (BV-2 [7]): 54.6%
inhibition at 10 µM (BV-2 [2]): 35.8%
IC50 (BV-2 [21]): 9.8 µM
inhibition of growth at 10 µM (SR [8]): 73.8%
inhibition of growth at 10 µM (K562 [9]): 64.6%
IC50 (BV-2 [10]): 19.8 µM
inhibition of growth at 10 µM (CCRF-CEM [11]): 75.6%

COc1cc2c(c(OC)c1OC)C(=O)CC(c1cccc(C(=O)Nc3cccc(F)c3)c1)O2 (racemic)
viability at 10 µM [1]: 110%
inhibition at 10 µM (BV-2 [2]): 25.8%

COc1cc2c(c(OC)c1OC)C(=O)CC(c1cccc(C(=O)Nc3ccncc3)c1)O2 (racemic)
viability at 10 µM [1]: 91.3%
inhibition at 10 µM (BV-2 [2]): 16%

COc1cc2c(c(OC)c1OC)C(=O)CC(c1cccc(NC(=O)c3cccc(Cl)c3)c1)O2 (racemic)
viability at 10 µM [1]: 100%
inhibition at 10 µM (BV-2 [2]): 32.3%

COc1cc2c(c(OC)c1OC)C(=O)CC(c1cccc(C(=O)Nc3ccc(C#N)cc3)c1)O2 (racemic)
viability at 10 µM [1]: 122%
inhibition at 10 µM (BV-2 [2]): 21.2%

COc1cc2c(c(OC)c1OC)C(=O)CC(c1cccc(C(=O)Nc3cccc(Br)c3)c1)O2 (racemic)
IC50 (BV-2 [3]): 15.5 µM
inhibition at 10 µM (BV-2 [4]): 19.8%
inhibition of growth at 10 µM (HL-60 [13]): 8.2%
viability at 10 µM [1]: 97.9%
inhibition of growth at 10 µM (RPMI-8226 [5]): 53.2%
inhibition of growth at 10 µM (MOLT-4 [6]): 51.2%
inhibition at 10 µM (BV-2 [7]): 39.5%
inhibition at 10 µM (BV-2 [2]): 46.3%
IC50 (BV-2 [21]): 10.9 µM
inhibition of growth at 10 µM (K562 [9]): 50.2%
IC50 (BV-2 [10]): 11.7 µM
inhibition of growth at 10 µM (CCRF-CEM [11]): 55%

COc1cc2c(c(OC)c1OC)C(=O)CC(c1cccc(C(=O)Nc3ccccc3Br)c1)O2 (racemic)
viability at 10 µM [1]: 101%
inhibition at 10 µM (BV-2 [2]): 9.4%
